Numbers after ± are expanded uncertainties.
Settings: 101.33 kPa, Liquid; for viscosity: Capillary tube (Ostwald / Ubbelohde) method; for mass density: Pycnometric method; for thermal conductivity: Hot wire method

OCCCOCCCO [4-oxa-1,7-heptanediol]
viscosity (297.42 K): 81.5 ± 1.8 mPa·s
mass density (297.45 K): 1020 ± 2 kg/m3
thermal conductivity (298.2 K): 0.156 ± 0.003 W/m/K
thermal conductivity (309.8 K): 0.157 ± 0.003 W/m/K
mass density (313.05 K): 1008 ± 2 kg/m3
viscosity (313.07 K): 29.8 ± 0.7 mPa·s
thermal conductivity (316.9 K): 0.156 ± 0.003 W/m/K
viscosity (333.1 K): 11.1 ± 0.2 mPa·s
mass density (333.1 K): 992.4 ± 2.1 kg/m3
thermal conductivity (347.4 K): 0.156 ± 0.003 W/m/K
viscosity (353.1 K): 5.24 ± 0.11 mPa·s
mass density (353.1 K): 976.1 ± 2 kg/m3
thermal conductivity (363 K): 0.156 ± 0.003 W/m/K
viscosity (372.25 K): 3 ± 0.06 mPa·s
mass density (372.25 K): 960.3 ± 2 kg/m3
thermal conductivity (377.6 K): 0.155 ± 0.003 W/m/K
viscosity (391.45 K): 1.9 ± 0.04 mPa·s
mass density (391.45 K): 943.1 ± 2 kg/m3
thermal conductivity (391.6 K): 0.154 ± 0.003 W/m/K
thermal conductivity (405.7 K): 0.153 ± 0.003 W/m/K
viscosity (408.35 K): 1.36 ± 0.03 mPa·s
mass density (408.35 K): 928.1 ± 2 kg/m3
viscosity (420.3 K): 1.1 ± 0.02 mPa·s
mass density (420.3 K): 916.9 ± 2 kg/m3
thermal conductivity (420.6 K): 0.151 ± 0.003 W/m/K
viscosity (428.3 K): 0.97 ± 0.021 mPa·s
mass density (428.3 K): 909.6 ± 1.9 kg/m3
thermal conductivity (435.1 K): 0.149 ± 0.003 W/m/K

CC(O)CO (stereo not drawn) [1,2-propanediol]
viscosity (297.25 K): 46.4 ± 1 mPa·s
mass density (298.85 K): 1033 ± 2 kg/m3
thermal conductivity (299.1 K): 0.196 ± 0.004 W/m/K
viscosity (302.55 K): 34 ± 0.7 mPa·s
thermal conductivity (313.6 K): 0.195 ± 0.004 W/m/K
viscosity (317.1 K): 16.4 ± 0.4 mPa·s
mass density (318.05 K): 1018 ± 2 kg/m3
viscosity (332.3 K): 8.75 ± 0.18 mPa·s
thermal conductivity (332.9 K): 0.195 ± 0.004 W/m/K
mass density (339 K): 1003 ± 2 kg/m3
viscosity (347.4 K): 5.26 ± 0.11 mPa·s
thermal conductivity (352.3 K): 0.194 ± 0.004 W/m/K
mass density (359.4 K): 986.1 ± 2 kg/m3
viscosity (362.05 K): 3.42 ± 0.07 mPa·s
thermal conductivity (371.6 K): 0.193 ± 0.004 W/m/K
viscosity (376.45 K): 2.34 ± 0.05 mPa·s
mass density (380.95 K): 967.6 ± 2 kg/m3
viscosity (391.05 K): 1.67 ± 0.04 mPa·s
thermal conductivity (391.1 K): 0.192 ± 0.004 W/m/K
mass density (399.6 K): 951.2 ± 2 kg/m3
viscosity (406.05 K): 1.27 ± 0.03 mPa·s
thermal conductivity (411.4 K): 0.19 ± 0.004 W/m/K
mass density (420.2 K): 931.7 ± 1.9 kg/m3
viscosity (420.85 K): 0.982 ± 0.021 mPa·s
thermal conductivity (430.4 K): 0.187 ± 0.004 W/m/K
mass density (440.35 K): 912.2 ± 1.9 kg/m3
thermal conductivity (450.8 K): 0.183 ± 0.004 W/m/K

CC(O)COC(C)COC(C)CO (stereo not drawn) [2-[2-(2-hydroxypropoxy)propoxy]-1-propanol]
viscosity (294.82 K): 69.4 ± 1.8 mPa·s
mass density (295.01 K): 1017 ± 3 kg/m3
thermal conductivity (298.1 K): 0.152 ± 0.003 W/m/K
viscosity (313.05 K): 23.6 ± 0.6 mPa·s
mass density (313.05 K): 1003 ± 3 kg/m3
thermal conductivity (326.1 K): 0.152 ± 0.003 W/m/K
viscosity (333.1 K): 9.64 ± 0.25 mPa·s
mass density (333.1 K): 986.4 ± 2.5 kg/m3
thermal conductivity (351.1 K): 0.15 ± 0.003 W/m/K
viscosity (353.1 K): 4.85 ± 0.12 mPa·s
mass density (353.1 K): 969.9 ± 2.5 kg/m3
viscosity (372.15 K): 2.91 ± 0.07 mPa·s
mass density (372.15 K): 953.5 ± 2.4 kg/m3
thermal conductivity (376.2 K): 0.148 ± 0.003 W/m/K
viscosity (391.5 K): 1.91 ± 0.05 mPa·s
mass density (391.5 K): 936.4 ± 2.4 kg/m3
thermal conductivity (399.4 K): 0.145 ± 0.003 W/m/K
viscosity (411.35 K): 1.33 ± 0.03 mPa·s
mass density (411.35 K): 918.7 ± 2.4 kg/m3
thermal conductivity (424.9 K): 0.14 ± 0.003 W/m/K
viscosity (428.2 K): 1.03 ± 0.03 mPa·s
mass density (428.2 K): 903.3 ± 2.3 kg/m3
thermal conductivity (449.6 K): 0.135 ± 0.003 W/m/K
